Laboratory results reported in US20080214844A1, “Icaritin and desmethylicaritin as anti-cancer agents” (priority 2007, published 2008).
Values belong to the compound of their own block, whether it stands above or below them.

Experiments:
NCI-H23 = experiment: MTT cell viability assay, NCI-H23; type: cell-based, human; details: NCI-H23, Lung, 3 days culture
Description: (§1) 26 cancer cell lines were grown in normal growth medium in the presence of different concentrations Icaritin or Desmethylicaritin. After culture for 3 days, the cell viability was then measured by an MTT assay. […] Some EC50s were lower than 10 uM for these two compounds. […] Whereas, normal human mammary gland epithelial cells (MCF10A) were not sensitive to Icaritin and Desmethylicaritin. These cells grew well when treated with these two compounds at a concentration of 50 uM.

MDA-MB-435 = experiment: MTT cell viability assay, MDA-MB-435; type: cell-based, human; details: MDA-MB-435, Breast, 3 days culture
Description: as §1

CCL-247 = experiment: MTT cell viability assay, CCL-247; type: cell-based, human; details: CCL-247, Colon, 3 days culture
Description: as §1

SKOV3 = experiment: MTT cell viability assay, SKOV3; type: cell-based, human; details: SKOV3, Ovary, 3 days culture
Description: as §1

SN12C = experiment: MTT cell viability assay, SN12C; type: cell-based, human; details: Kidney, 3 days culture
Description: as §1

Jurkat T cell = experiment: MTT cell viability assay, Jurkat T cell; type: cell-based, human; details: Leukemia, 3 days culture
Description: as §1

Caki-1 = experiment: MTT cell viability assay, Caki-1; type: cell-based, human; details: Caki-1, Kidney, 3 days culture
Description: as §1

LoVo = experiment: MTT cell viability assay, LoVo; type: cell-based, human; details: Colon, 3 days culture
Description: as §1

estrogen receptor = details: mediated by the estrogen receptor; cited from earlier work
786-O = experiment: MTT cell viability assay, 786-O; type: cell-based, human; details: Kidney, 3 days culture
Description: as §1

G-361 = experiment: MTT cell viability assay, G-361; type: cell-based, human; details: G-361, Skin, 3 days culture
Description: as §1

IGROV1 = experiment: MTT cell viability assay, IGROV1; type: cell-based, human; details: IGROV1, Ovary, 3 days culture
Description: as §1

D145 = experiment: MTT cell viability assay, D145; type: cell-based, human; details: D145, Prostate, 3 days culture
Description: as §1

MDA-MB-231 = experiment: MTT cell viability assay, MDA-MB-231; type: cell-based, human; details: MDA-MB-231, Breast, 3 days culture
Description: as §1

SK-MEL-5 = experiment: MTT cell viability assay, SK-MEL-5; type: cell-based, human; details: SK-MEL-5, Skin, 3 days culture
Description: as §1

Widr = experiment: MTT cell viability assay, Widr; type: cell-based, human; details: Colon, 3 days culture
Description: as §1

HT29 = experiment: MTT cell viability assay, HT29; type: cell-based, human; details: HT29, Colon, 3 days culture
Description: as §1

ACHN = experiment: MTT cell viability assay, ACHN; type: cell-based, human; details: Kidney, 3 days culture
Description: as §1

AU-565 = experiment: MTT cell viability assay, AU-565; type: cell-based, human; details: AU-565, Breast, 3 days culture
Description: as §1

PC3 = experiment: MTT cell viability assay, PC3; type: cell-based, human; details: PC3, Prostate, 3 days culture
Description: as §1

Mid PaCa-2 = experiment: MTT cell viability assay, Mid PaCa-2; type: cell-based, human; details: Mid PaCa-2, Pancreas, 3 days culture
Description: as §1

CCL-225 = experiment: MTT cell viability assay, CCL-225; type: cell-based, human; details: CCL-225, Colon, 3 days culture
Description: as §1

[1] = test system: LNCaP cells and MDA-MB-231 cells; experiment: Synthesis of lipid classes in cancer cells; type: cell-based, human
Description: Icaritin and Desmethylicaritin decrease Lipogenesis in Prostate and Breast Cancer cells via inhibition of fatty acid synthase (FAS) Activity. Protein extracts from LNCaP cells, which had been ^14C-labeled with malonyl-CoA, were pretreated with these two compounds. A concentration of 0.5 μM Icaritin or Desmethylicaritin reduced the in vitro enzymatic FAS activity to less than 50%. […] Consistent with their FAS inhibitory effect, inhibition of lipogenesis by Icaritin and Desmethylicaritin affected the synthesis of phospholipids (including phosphatidylcholine, phosphatidylethanolamine, phosphatidylinositol, phosphatidylserine, and sphingomyelin) and of triglycerides in LNCaP cells and MDA-MB-231 cells. […] Cholesterol synthesis, however, accounts for less than 10% of the total lipogenic activity in LNCaP and MDA-MB-231 cancer cells, whereas ˜75 and 15% of the lipogenic activity in these cells represents phospholipid and triglyceride synthesis, respectively.

U-251 = experiment: MTT cell viability assay, U-251; type: cell-based, human; details: U-251, Glioblastoma, 3 days culture
Description: as §1

BT-549 = experiment: MTT cell viability assay, BT-549; type: cell-based, human; details: BT-549, Breast, 3 days culture
Description: as §1

[2] = test system: FAS protein levels in LNCaP cells; experiment: Western blot analysis for FAS protein levels; type: cell-based, human
LNCAP = experiment: MTT cell viability assay, LNCAP; type: cell-based, human; details: Prostate, 3 days culture
Description: as §1

HCT-116 = experiment: MTT cell viability assay, HCT-116; type: cell-based, human; details: HCT-116, Colon, 3 days culture
Description: as §1

MCF-10a = experiment: MTT cell viability assay, MCF-10a normal breast epithelial cells; type: cell-based, human
Description: as §1

A549 = experiment: MTT cell viability assay, A549; type: cell-based, human; details: A549, Lung, 3 days culture
Description: as §1

Raji = experiment: MTT cell viability assay, Raji; type: cell-based, human; details: Lymphoma, 3 days culture
Description: as §1

MCF-7 = experiment: MTT cell viability assay, MCF-7; type: cell-based, human; details: MCF-7, Breast, 3 days culture
Description: as §1

[3] = test system: hepatoma or leukemia cell lines; details: other studies; cited from earlier work
[4] = test system: highly metastatic human lung cancer cells (PG); details: PG cells in vitro; cited from earlier work

- IC50 (NCI-H23): 6.5 µM
- IC50 (MDA-MB-435): 12.7 µM
- IC50 (SKOV3): 10.4 µM
- IC50 (Jurkat T cell): 4.9 µM
- IC50 (LoVo): 10.5 µM
- IC50 (786-O): 10.9 µM
- IC50 (MDA-MB-231): 6.5 µM
- IC50 (SK-MEL-5): 10.8 µM
- IC50 (HT29): 16.8 µM
- IC50 (ACHN): 9.7 µM
- IC50 (PC3): 10.6 µM
- IC50 (U-251): 7.3 µM
- IC50 (BT-549): 9.6 µM
- IC50 (LNCAP): 6.1 µM
- IC50 (HCT-116): 6.9 µM
- IC50 (A549): 10.7 µM
- IC50 (Raji): 5.2 µM
- IC50 (MCF-7): 24.8 µM
SMILES: CC(C)=CCc1c(O)cc(O)c2c(=O)c(O)c(-c3ccc(O)cc3)oc12 [Desmethylicaritin]
- IC50 (CCL-247): 17.6 µM
- IC50 (SN12C): 15.9 µM
- IC50 (Caki-1): 7.5 µM
- estrogenic effect (estrogen receptor): week phytoestrogens
- IC50 (G-361): 7.4 µM
- IC50 (IGROV1): 11.2 µM
- IC50 (D145): 9.8 µM
- IC50 (Widr): 11.3 µM
- IC50 (AU-565): 8.9 µM
- IC50 (Mid PaCa-2): 8.6 µM
- IC50 (CCL-225): 8.9 µM
- synthesis of cholesterol ([1]; LNCaP and MDA-MB-231 cells): decreased
- synthesis of phospholipids and of triglycerides ([1]; LNCaP cells and MDA-MB-231 cells): affected
- FAS protein levels (Western blot) [2]: did not influence
- IC50 (MCF-10a; MCF-10a, Normal breast epithelial cells, 3 days culture, MTT): > 50 µM
- sensitivity of normal human mammary gland epithelial cells (MCF10A) (MCF-10a; cells grew well at 50 uM): not sensitive

SMILES: COc1ccc(-c2oc3c(CC=C(C)C)c(O[C@@H]4O[C@H](CO)[C@@H](O)[C@H](O)[C@H]4O)cc(O)c3c(=O)c2O[C@@H]2O[C@@H](C)[C@H](O)[C@@H](O)[C@H]2O)cc1 [ICA, Icariin]
- inhibition of hepatoma or leukemia cell lines [3]: no inhibition
- PG cells adhesive ratio to laminin substrate [4]: decreased
- ability of invasion or migration [4]: decreased
- cAMP/cGMP ratio [4]: increased
- distribution of PG cells cycle [4]: reduce S phase
- expression of membrane HLA-ABC antigen [4]: increase
- level of cAMP in PG cells [4]: increased
- level of cGMP [4]: reduced
- membrane fluidity of PG [4]: enhance
